Experimental data reported in article PMC7327080, “A novel 4-aminoquinazoline derivative, DHW-208, suppresses the growth of human breast cancer cells by targeting the PI3K/AKT/mTOR pathway” (Cell Death & Disease, 2020).

Molecular target: mTOR (Homo sapiens, UniProt P42345)
Assay: in vitro mTOR kinase activity assay (inhibition curve, Fig. 5e)
Format: biochemical

IC50: 3 nM
SMILES: COc1ncc(-c2ccc3ncnc(Nc4cnn(CCO)c4)c3c2)cc1NS(=O)(=O)c1ccc(F)cc1F [DHW-208, 2,4-difluoro-N-(5-(4-((1-(2-hydroxyethyl)-1H-pyrazol-4-yl)amino)quinazolin-6-yl)-2-methoxypyridin-3-yl)benzenesulfonamide]
